Assay results from ChEMBL document CHEMBL4507324 (2021).

How the values were obtained:
Conditions in all cases: Compound concentration 100.0 nM
[1] = target: Serine/threonine-protein kinase pim-1 (Homo sapiens) (UniProt P11309)
[2] = target: Receptor tyrosine-protein kinase erbB-3 (Homo sapiens) (UniProt P21860)
[3] = target: Testis-specific serine/threonine-protein kinase 3 (Homo sapiens) (UniProt Q96PN8)
[4] = target: Interleukin-1 receptor-associated kinase 3 (Homo sapiens) (UniProt Q9Y616)
[5] = target: Calcium/calmodulin-dependent protein kinase type II subunit delta (Homo sapiens) (UniProt Q13557)
[6] = target: Bone morphogenetic protein receptor type-2 (Homo sapiens) (UniProt Q13873)
[7] = target: Serine/threonine-protein kinase Nek5 (Homo sapiens) (UniProt Q6P3R8)
[8] = target: Serine/threonine-protein kinase Chk1 (Homo sapiens) (UniProt O14757)
Chain of Serine/threonine-protein kinase Chk1 (Homo sapiens) (O14757 whole entry): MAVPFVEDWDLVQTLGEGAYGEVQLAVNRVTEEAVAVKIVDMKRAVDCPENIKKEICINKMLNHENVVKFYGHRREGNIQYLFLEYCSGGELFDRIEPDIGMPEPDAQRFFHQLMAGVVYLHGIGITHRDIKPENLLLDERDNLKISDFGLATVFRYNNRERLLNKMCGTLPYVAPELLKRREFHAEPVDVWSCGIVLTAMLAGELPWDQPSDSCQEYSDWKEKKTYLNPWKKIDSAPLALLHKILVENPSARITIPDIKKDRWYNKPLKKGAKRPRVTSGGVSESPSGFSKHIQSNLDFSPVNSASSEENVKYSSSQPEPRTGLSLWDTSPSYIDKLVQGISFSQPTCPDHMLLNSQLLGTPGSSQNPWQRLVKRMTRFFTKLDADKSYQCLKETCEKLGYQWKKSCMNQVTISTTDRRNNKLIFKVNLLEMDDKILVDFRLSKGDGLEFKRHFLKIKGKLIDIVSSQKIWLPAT

[9] = target: Angiopoietin-1 receptor (Homo sapiens) (UniProt Q02763)
[10] = tested on: Mast/stem cell growth factor receptor Kit (Homo sapiens), P10721 [V559D]
[11] = target: Fibroblast growth factor receptor 1 (Homo sapiens) (UniProt P11362)
[12] = tested on: Phosphatidylinositol 4,5-bisphosphate 3-kinase catalytic subunit alpha isoform (Homo sapiens), P42336 [H1047Y]
[13] = target: Tyrosine-protein kinase ABL1 (Homo sapiens) (UniProt P00519)
[14] = target: Mitogen-activated protein kinase kinase kinase 20 (Homo sapiens) (UniProt Q9NYL2)
[15] = tested on: Receptor-type tyrosine-protein kinase FLT3 (Homo sapiens), P36888 [D835Y]
[16] = target: 5'-AMP-activated protein kinase catalytic subunit alpha-2 (Homo sapiens) (UniProt P54646)
[17] = target: Cyclin-dependent kinase 13 (Homo sapiens) (UniProt Q14004)
[18] = target: Activin receptor type-1-like (Homo sapiens) (UniProt P37023)
[19] = target: Serine/threonine-protein kinase tousled-like 2 (Homo sapiens) (UniProt Q86UE8)
Chain of Serine/threonine-protein kinase tousled-like 2 (Homo sapiens) (Q86UE8 whole entry, looked up): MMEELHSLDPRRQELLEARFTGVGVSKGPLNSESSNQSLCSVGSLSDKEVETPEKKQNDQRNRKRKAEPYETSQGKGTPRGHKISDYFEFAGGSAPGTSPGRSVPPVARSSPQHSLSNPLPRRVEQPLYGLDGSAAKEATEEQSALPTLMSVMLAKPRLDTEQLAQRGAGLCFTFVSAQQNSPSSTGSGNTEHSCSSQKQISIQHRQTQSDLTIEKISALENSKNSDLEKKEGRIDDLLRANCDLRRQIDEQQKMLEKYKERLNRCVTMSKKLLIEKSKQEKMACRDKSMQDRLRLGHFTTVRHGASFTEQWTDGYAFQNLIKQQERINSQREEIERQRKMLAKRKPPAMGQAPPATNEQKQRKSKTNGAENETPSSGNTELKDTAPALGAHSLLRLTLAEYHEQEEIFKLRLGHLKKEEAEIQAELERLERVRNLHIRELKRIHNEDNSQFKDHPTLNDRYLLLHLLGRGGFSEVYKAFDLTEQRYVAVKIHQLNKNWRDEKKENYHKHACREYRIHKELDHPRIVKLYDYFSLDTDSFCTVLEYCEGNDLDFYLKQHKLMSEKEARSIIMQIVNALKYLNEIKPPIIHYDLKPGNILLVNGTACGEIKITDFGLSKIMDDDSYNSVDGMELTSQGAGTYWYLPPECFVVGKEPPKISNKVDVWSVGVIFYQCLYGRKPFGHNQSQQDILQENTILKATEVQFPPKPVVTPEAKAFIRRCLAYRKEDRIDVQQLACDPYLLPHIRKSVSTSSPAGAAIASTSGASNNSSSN

[20] = target: Ribosomal protein S6 kinase alpha-6 (Homo sapiens) (UniProt Q9UK32)
[21] = target: Cyclin-G-associated kinase (Homo sapiens) (UniProt O14976)
[22] = target: Aurora kinase B (Homo sapiens) (UniProt Q96GD4)
[23] = target: BDNF/NT-3 growth factors receptor (Homo sapiens) (UniProt Q16620)
Chain of BDNF/NT-3 growth factors receptor (Homo sapiens) (Q16620 32-822 limits assumed): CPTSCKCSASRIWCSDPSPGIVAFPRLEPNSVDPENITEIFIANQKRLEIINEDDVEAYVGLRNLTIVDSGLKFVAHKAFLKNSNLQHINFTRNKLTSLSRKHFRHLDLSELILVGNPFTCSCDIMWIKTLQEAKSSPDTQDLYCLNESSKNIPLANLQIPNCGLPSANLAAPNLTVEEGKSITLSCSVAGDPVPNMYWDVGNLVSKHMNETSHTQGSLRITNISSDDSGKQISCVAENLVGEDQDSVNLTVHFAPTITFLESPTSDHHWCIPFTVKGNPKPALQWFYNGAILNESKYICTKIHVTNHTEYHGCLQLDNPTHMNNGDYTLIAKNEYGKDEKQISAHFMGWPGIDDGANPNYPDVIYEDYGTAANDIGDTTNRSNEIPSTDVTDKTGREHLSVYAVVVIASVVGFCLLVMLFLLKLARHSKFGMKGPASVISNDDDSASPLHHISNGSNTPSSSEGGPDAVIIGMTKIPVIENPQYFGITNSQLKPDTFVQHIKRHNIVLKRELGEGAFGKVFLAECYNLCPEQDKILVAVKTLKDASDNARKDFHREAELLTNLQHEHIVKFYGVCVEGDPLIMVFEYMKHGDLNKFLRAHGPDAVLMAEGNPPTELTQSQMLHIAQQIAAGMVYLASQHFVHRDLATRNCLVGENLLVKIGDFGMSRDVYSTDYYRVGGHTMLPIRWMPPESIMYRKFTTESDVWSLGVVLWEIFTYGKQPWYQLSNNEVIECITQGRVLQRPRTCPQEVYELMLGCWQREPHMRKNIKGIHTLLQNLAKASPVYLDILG

[24] = target: Serine/threonine-protein kinase TBK1 (Homo sapiens) (UniProt Q9UHD2)
[25] = target: Homeodomain-interacting protein kinase 3 (Homo sapiens) (UniProt Q9H422)
[26] = target: Receptor-interacting serine/threonine-protein kinase 1 (Homo sapiens) (UniProt Q13546)
Chain of Receptor-interacting serine/threonine-protein kinase 1 (Homo sapiens) (Q13546 whole entry): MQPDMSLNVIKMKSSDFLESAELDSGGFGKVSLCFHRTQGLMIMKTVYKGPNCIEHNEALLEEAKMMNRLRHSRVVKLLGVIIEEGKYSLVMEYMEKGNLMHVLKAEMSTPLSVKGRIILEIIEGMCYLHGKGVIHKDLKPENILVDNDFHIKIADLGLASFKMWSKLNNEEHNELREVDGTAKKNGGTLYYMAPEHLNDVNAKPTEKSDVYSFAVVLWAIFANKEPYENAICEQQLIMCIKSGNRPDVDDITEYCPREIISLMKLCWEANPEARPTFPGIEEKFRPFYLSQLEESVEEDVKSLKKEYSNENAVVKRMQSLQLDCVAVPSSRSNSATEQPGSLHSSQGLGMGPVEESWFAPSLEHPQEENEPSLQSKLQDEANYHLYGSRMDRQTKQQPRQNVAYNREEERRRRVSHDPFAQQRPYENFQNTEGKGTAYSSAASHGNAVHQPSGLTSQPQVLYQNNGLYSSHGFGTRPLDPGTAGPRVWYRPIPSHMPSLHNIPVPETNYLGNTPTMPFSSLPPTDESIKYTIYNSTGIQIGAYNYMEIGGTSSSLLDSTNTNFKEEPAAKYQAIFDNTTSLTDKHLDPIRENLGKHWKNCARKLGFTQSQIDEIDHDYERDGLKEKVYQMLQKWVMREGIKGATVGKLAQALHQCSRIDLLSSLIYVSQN

[27] = target: Ribosomal protein S6 kinase alpha-1 (Homo sapiens) (UniProt Q15418)
[28] = target: Dual specificity protein kinase CLK2 (Homo sapiens) (UniProt P49760)
[29] = target: Serine/threonine-protein kinase Nek1 (Homo sapiens) (UniProt Q96PY6)
[30] = target: Mitogen-activated protein kinase 1 (Homo sapiens) (UniProt P28482)
[31] = target: LIM domain kinase 1 (Homo sapiens) (UniProt P53667)
[32] = target: Uncharacterized serine/threonine-protein kinase SBK3 (Homo sapiens) (UniProt P0C264)
[33] = target: Serine/threonine-protein kinase Nek11 (Homo sapiens) (UniProt Q8NG66)
Chain of Serine/threonine-protein kinase Nek11 (Homo sapiens) (Q8NG66 whole entry): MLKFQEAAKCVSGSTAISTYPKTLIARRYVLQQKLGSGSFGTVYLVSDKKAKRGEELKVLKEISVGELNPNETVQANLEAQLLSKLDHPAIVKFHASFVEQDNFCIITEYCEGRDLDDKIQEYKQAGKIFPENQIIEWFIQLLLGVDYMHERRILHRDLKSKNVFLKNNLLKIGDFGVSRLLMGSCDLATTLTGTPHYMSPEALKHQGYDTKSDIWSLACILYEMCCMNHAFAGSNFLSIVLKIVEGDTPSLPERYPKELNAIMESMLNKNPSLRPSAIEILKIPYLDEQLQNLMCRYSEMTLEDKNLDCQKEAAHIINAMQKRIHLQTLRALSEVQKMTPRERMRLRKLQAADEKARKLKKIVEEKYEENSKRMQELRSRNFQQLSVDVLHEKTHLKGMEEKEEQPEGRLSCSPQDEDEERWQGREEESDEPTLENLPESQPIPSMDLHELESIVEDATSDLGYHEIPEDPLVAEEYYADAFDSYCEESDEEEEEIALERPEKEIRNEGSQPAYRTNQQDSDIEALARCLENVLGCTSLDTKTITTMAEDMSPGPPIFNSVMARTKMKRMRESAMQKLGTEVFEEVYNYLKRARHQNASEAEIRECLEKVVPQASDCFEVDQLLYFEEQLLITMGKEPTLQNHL

[34] = tested on: Tyrosine-protein kinase ABL1 (Homo sapiens), P00519 [T315I]
[35] = target: Tyrosine-protein kinase Fes/Fps (Homo sapiens) (UniProt P07332)
[36] = target: cAMP-dependent protein kinase catalytic subunit alpha (Homo sapiens) (UniProt P17612)
[37] = tested on: Phosphatidylinositol 4,5-bisphosphate 3-kinase catalytic subunit alpha isoform (Homo sapiens), P42336 [M1043I]
Chain of Phosphatidylinositol 4,5-bisphosphate 3-kinase catalytic subunit alpha isoform (Homo sapiens), P42336 [M1043I] (P42336 whole entry M1043I, canonical isoform): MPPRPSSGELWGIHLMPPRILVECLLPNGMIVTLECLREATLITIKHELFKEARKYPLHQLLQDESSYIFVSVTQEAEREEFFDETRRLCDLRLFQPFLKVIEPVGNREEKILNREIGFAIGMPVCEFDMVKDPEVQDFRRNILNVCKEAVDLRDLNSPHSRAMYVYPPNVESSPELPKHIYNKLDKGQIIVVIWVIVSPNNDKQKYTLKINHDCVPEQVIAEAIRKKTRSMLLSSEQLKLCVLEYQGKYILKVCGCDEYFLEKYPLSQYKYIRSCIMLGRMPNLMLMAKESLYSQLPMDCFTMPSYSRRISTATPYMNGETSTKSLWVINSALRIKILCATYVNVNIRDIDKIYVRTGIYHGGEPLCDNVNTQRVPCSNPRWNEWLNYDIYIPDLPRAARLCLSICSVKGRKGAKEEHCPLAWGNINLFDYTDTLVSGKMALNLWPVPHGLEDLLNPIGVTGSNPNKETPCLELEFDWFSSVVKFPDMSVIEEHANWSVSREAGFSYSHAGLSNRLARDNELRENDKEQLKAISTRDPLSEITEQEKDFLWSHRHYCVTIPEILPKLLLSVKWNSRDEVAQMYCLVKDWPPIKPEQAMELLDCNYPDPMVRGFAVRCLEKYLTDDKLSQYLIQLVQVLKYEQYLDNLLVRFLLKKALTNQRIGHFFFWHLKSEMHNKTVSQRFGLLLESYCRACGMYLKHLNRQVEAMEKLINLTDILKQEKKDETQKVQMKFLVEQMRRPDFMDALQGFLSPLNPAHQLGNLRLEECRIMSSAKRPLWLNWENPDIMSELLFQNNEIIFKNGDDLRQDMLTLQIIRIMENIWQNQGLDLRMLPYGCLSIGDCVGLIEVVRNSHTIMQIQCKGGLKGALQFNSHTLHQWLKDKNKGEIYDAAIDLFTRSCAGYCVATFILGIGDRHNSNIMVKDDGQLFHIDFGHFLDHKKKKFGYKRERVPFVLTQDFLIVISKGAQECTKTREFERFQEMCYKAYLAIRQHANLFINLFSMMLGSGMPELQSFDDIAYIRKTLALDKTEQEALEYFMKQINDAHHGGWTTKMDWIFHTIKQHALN

[38] = target: Proto-oncogene tyrosine-protein kinase Src (Homo sapiens) (UniProt P12931)
[39] = tested on: eIF-2-alpha kinase GCN2 (Homo sapiens), Q9P2K8 [S808G]
[40] = target: Proto-oncogene tyrosine-protein kinase ROS (Homo sapiens) (UniProt P08922)
[41] = target: 1-phosphatidylinositol 3-phosphate 5-kinase (Homo sapiens) (UniProt Q9Y2I7)
[42] = target: Glycogen synthase kinase-3 beta (Homo sapiens) (UniProt P49841)
[43] = target: Epidermal growth factor receptor (Homo sapiens) (UniProt P00533)
[44] = target: Dual specificity mitogen-activated protein kinase kinase 4 (Homo sapiens) (UniProt P45985)
[45] = target: Death-associated protein kinase 2 (Homo sapiens) (UniProt Q9UIK4)

Chain of Interleukin-1 receptor-associated kinase 3 (Homo sapiens) (Q9Y616 whole entry): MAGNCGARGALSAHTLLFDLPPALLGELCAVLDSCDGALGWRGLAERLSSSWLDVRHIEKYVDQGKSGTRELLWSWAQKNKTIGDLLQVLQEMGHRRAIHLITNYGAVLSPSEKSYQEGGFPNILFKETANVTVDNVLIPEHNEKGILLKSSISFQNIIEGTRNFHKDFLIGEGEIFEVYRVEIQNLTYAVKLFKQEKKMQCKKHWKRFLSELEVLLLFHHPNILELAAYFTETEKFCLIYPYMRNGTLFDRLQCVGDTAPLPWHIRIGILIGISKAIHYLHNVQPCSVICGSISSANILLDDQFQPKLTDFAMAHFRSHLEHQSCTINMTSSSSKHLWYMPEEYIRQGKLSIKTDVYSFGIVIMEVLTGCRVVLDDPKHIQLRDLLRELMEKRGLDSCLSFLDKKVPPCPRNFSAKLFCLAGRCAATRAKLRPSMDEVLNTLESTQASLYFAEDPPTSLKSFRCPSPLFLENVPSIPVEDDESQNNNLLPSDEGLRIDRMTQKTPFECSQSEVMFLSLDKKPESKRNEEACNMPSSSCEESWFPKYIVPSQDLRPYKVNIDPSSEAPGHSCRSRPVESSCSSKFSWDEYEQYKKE

CS(=O)(=O)N1CCCC(NC(=O)[C@H](CCC2CCCCC2)NC(=O)c2ccc(CNc3ncnc4c3nnn4-c3ccccc3)cc2)C1 (stereo not given in full) [SR-301]
residual activity [1]: 95%
residual activity [2]: 100%
residual activity [3]: 100%
residual activity [4]: 100%
residual activity [5]: 93%
residual activity [6]: 100%
residual activity [7]: 95%
residual activity [8]: 100%
residual activity [9]: 73%
residual activity [10]: 93%
residual activity [11]: 91%
residual activity [12]: 100%
residual activity [13]: 82%
residual activity [14]: 89%
residual activity [15]: 93%
residual activity [16]: 100%
residual activity [17]: 100%
residual activity [18]: 97%
residual activity [19]: 82%
residual activity [20]: 100%
residual activity [21]: 95%
residual activity [22]: 100%
residual activity [23]: 100%
residual activity [24]: 88%
residual activity [25]: 100%
residual activity [26]: 94%
residual activity [27]: 100%
residual activity [28]: 100%
residual activity [29]: 51%
residual activity [30]: 90%
residual activity [31]: 100%
residual activity [32]: 100%
residual activity [33]: 100%
residual activity [34]: 100%
residual activity [35]: 87%
residual activity [36]: 100%
residual activity [37]: 87%
residual activity [38]: 94%
residual activity [39]: 100%
residual activity [40]: 91%
residual activity [41]: 61%
residual activity [42]: 100%
residual activity [43]: 100%
residual activity [44]: 100%
residual activity [45]: 90%

CS(=O)(=O)N1CCCC(NC(=O)[C@H](CCC2CCCCC2)NC(=O)c2ccc(CNC(=O)c3cnc4ccccn34)cc2)C1 (stereo not given in full) [SR-302]
residual activity [1]: 89%
residual activity [2]: 83%
residual activity [3]: 93%
residual activity [4]: 65%
residual activity [5]: 84%
residual activity [6]: 100%
residual activity [7]: 89%
residual activity [8]: 100%
residual activity [9]: 92%
residual activity [10]: 49%
residual activity [11]: 100%
residual activity [12]: 84%
residual activity [13]: 61%
residual activity [14]: 79%
residual activity [15]: 100%
residual activity [16]: 79%
residual activity [17]: 61%
residual activity [18]: 96%
residual activity [19]: 89%
residual activity [20]: 97%
residual activity [21]: 96%
residual activity [22]: 95%
residual activity [23]: 87%
residual activity [24]: 75%
residual activity [25]: 100%
residual activity [26]: 88%
residual activity [27]: 92%
residual activity [28]: 98%
residual activity [29]: 68%
residual activity [30]: 100%
residual activity [31]: 75%
residual activity [32]: 66%
residual activity [33]: 94%
residual activity [34]: 83%
residual activity [35]: 100%
residual activity [36]: 100%
residual activity [37]: 37%
residual activity [38]: 100%
residual activity [39]: 100%
residual activity [40]: 100%
residual activity [41]: 100%
residual activity [42]: 100%
residual activity [43]: 76%
residual activity [44]: 100%
residual activity [45]: 94%
